Measurements taken from patent publication US9044520B2, “Compound accumulating in inflammatory site, diagnostic agent containing the compound in labeled state and its precursor compound for labeling” (Nihon Medi-Physics Co., Ltd., priority 2011, dated 2015).
Non-standard residues stand in square brackets, D forms with d. Residues, ends and D or L forms follow the SMILES beside them. *: point of attachment. Benzoyl(4-F) = O=C(c1ccc(F)cc1)*; Nle = CCCC[C@H](N)C(=O)O; For = O=C*

These compounds were tested against T1, formylated peptide receptor (FPR) (Homo sapiens, UniProt P21462) (assay: Binding assay/inhibition assay: binding affinity for formylated peptide receptor (FPR), displacement of [125I] Trp-Lys-Tyr-Met-Val-DMet). Conditions: read-out: Ki (Mean value ± SD).
T1 sequence (P21462 1-350): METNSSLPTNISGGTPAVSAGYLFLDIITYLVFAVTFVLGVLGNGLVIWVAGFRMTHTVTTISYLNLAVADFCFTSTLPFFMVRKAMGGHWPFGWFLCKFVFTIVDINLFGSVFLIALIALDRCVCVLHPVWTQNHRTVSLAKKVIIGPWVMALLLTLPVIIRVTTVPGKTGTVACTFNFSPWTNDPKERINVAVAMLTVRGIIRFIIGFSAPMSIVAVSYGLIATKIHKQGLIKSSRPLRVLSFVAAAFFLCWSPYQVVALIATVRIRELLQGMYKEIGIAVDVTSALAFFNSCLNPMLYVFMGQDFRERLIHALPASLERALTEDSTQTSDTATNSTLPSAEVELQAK
Procedure: Each peptide having a different concentration (DMSO solution, 10 μL), 2 nmol/L [^125I] Trp-Lys-Tyr-Met-Val-DMet (10 μL) as radioligand, and FPR (10 μL) were added to a binding buffer (170 μL) and incubated at 25° C. for 1 hour, followed by collection by filtration (cell harvesters) using a GF/C filter coated with a polylysine buffer. After washing, radioactivity left on the filter was measured using a γ counter. [^125I] Trp-Lys-Tyr-Met-Val-DMet means a positive control having affinity for FPR and was obtained from PerkinElmer Co., Ltd. for use.
*Binding buffer: 50 mmol/L Hepes, pH 7.4, 5 mmol/L MgCl2, 1 mmol/L CaCl2, 0.2% BSA
Wash buffer: 50 mmol/L Hepes, pH 7.4, 500 mmol/L NaCl, 0.1% BSA
Polylysine buffer: Poly-L-lysine hydrobromate 100 mg/wash buffer 100 mL
Ki values in the table were calculated using the following equation (1).
IC50: Calculation from Graph Pad
[L]: Concentration of Radioligand (Adjusted to 0.2 nM)
A Ki of 0.04 ± 0.04 nM was found for `CCCC[C@H](NC(=O)[C@H](Cc1ccccc1)NC(=O)[C@H](CC(C)C)NC(=O)[C@H](CCSC)NC=O)C(=O)N[C@@H](Cc1ccc(O)cc1)C(=O)N[C@H](CCCCNC(=O)c1ccc(F)cc1)C(N)=O` [Peptide 1, formyl-Met-Leu-Phe-Nle-Tyr-DLys-ε([^19F]FB)-NH2] (For-MLF[Nle]Y[dK](Benzoyl(4-F))-NH2) in this work. A Ki of 21.9 ± 12.7 nM was found for `CCCC[C@H](NC=O)C(=O)N[C@@H](CC(C)C)C(=O)N[C@@H](Cc1ccccc1)C(=O)N[C@@H](CCCC)C(=O)N[C@@H](Cc1ccc(O)cc1)C(=O)N[C@H](CCCCN)C(=O)N[C@H](CCCCN)C(=O)N[C@H](CCCCNC(=O)c1ccc(F)cc1)C(N)=O` [Peptide 6, formyl-Nle-Leu-Phe-Nle-Tyr-DLys-DLys-DLys-ε([^19F]FB)-NH2, reference compound] (For-[Nle]LF[Nle]Y[dK][dK][dK](Benzoyl(4-F))-NH2) in this work. A Ki of 0.63 ± 0.14 nM was found for `CCCC[C@H](NC(=O)[C@H](Cc1ccccc1)NC(=O)[C@H](CC(C)C)NC(=O)[C@H](CCSC)NC=O)C(=O)N[C@@H](Cc1ccc(O)cc1)C(=O)N[C@H](CCCCNC(=O)c1ccc(F)cc1)C(=O)N[C@H](CCCCN)C(N)=O` [Peptide 5, formyl-Met-Leu-Phe-Nle-Tyr-DLys-ε([^19F]FB)-DLys-NH2] (For-MLF[Nle]Y[dK](Benzoyl(4-F))[dK]-NH2) in this work. A Ki of 1.22 ± 0.4 nM was found for `CCCC[C@H](NC=O)C(=O)N[C@@H](CC(C)C)C(=O)N[C@@H](Cc1ccccc1)C(=O)N[C@@H](CCCC)C(=O)N[C@@H](Cc1ccc(O)cc1)C(=O)N[C@H](CCCCN)C(=O)N[C@H](CCCCNC(=O)c1ccc(F)cc1)C(N)=O` [Peptide 4, formyl-Nle-Leu-Phe-Nle-Tyr-DLys-DLys-ε([^19F]FB)-NH2] (For-[Nle]LF[Nle]Y[dK][dK](Benzoyl(4-F))-NH2) in this work. A Ki of 0.46 ± 0.07 nM was found for `CCCC[C@H](NC(=O)[C@H](Cc1ccccc1)NC(=O)[C@H](CC(C)C)NC(=O)[C@H](CCSC)NC=O)C(=O)N[C@@H](Cc1ccc(O)cc1)C(=O)N[C@H](CCCCN)C(=O)N[C@H](CCCCNC(=O)c1ccc(F)cc1)C(N)=O` [Peptide 3, formyl-Met-Leu-Phe-Nle-Tyr-DLys-DLys-ε([^19F]FB)-NH2] (For-MLF[Nle]Y[dK][dK](Benzoyl(4-F))-NH2) in this work. A Ki of 0.4 ± 0.36 nM was found for `CCCC[C@H](NC=O)C(=O)N[C@@H](CC(C)C)C(=O)N[C@@H](Cc1ccccc1)C(=O)N[C@@H](CCCC)C(=O)N[C@@H](Cc1ccc(O)cc1)C(=O)N[C@H](CCCCNC(=O)c1ccc(F)cc1)C(N)=O` [Peptide 2, formyl-Nle-Leu-Phe-Nle-Tyr-DLys-ε([^19F]FB)-NH2] (For-[Nle]LF[Nle]Y[dK](Benzoyl(4-F))-NH2) in this work.
